Reference: ChEMBL document CHEMBL4699483, “Synthesis of functionalized derivatives of the gamma-secretase modulator BMS-932481 and identification of its major metabolite” (Bioorg Med Chem Lett, 2020)
Values belong to the molecule of their own block, whether it stands above or below them.

Columns and labels:
Gamma-secretase = experiment: Modulation of gamma secretase (unknown origin) assessed as inhibition of amyloid beta (1 to 42 residues) production; assay type: protein-complex assay, Homo sapiens
[1] = Drug metabolism assessed as nitrile adduct formation in presence of KCN
[2] = Drug metabolism assessed as (5R,7S)-7-(4-fluorophenyl)-2-(3-methoxy-4-(3-methyl-1H-1,2,4-triazol-1-yl)phenylamino)-4-(methylamino)-6,7-dihydro-5H-cyclopenta[d]pyrimidin-5-ol metabolite formation by LC/MS analysis
[3] = Drug metabolism assessed as iminoquinone A formation
[4] = Glutathione reactivity in liver microsomes assessed as GSH-adduct formation; assay type: ADME
[5] = Metabolic stability in human liver microsomes assessed as parent compound remaining incubated for 30 mins; assay type: ADME, Microsome; conditions: read-out: Stabilty
[6] = Drug metabolism assessed as (S)-7-(4-fluorophenyl)-2-(3-methoxy-4-(3-methyl-1H-1,2,4-triazol-1-yl)phenylamino)-4-(methylamino)-6,7-dihydro-5H-cyclopenta[d]pyrimidin-5-one metabolite formation by LC/MS analysis
[7] = Metabolic stability in rat liver microsomes assessed as parent compound remaining incubated for 30 mins; assay type: ADME, Microsome; conditions: read-out: Stabilty
Cytochrome P450 3A4 = Cytochrome P450 3A4 (Homo sapiens, UniProt P08684); experiment: Time-dependent inhibition of CYP3A4 in human liver microsomes assessed as inhibition constant by Kitz-Wilson plot analysis; assay type: ADME
Chain of Cytochrome P450 3A4 (P08684 whole entry): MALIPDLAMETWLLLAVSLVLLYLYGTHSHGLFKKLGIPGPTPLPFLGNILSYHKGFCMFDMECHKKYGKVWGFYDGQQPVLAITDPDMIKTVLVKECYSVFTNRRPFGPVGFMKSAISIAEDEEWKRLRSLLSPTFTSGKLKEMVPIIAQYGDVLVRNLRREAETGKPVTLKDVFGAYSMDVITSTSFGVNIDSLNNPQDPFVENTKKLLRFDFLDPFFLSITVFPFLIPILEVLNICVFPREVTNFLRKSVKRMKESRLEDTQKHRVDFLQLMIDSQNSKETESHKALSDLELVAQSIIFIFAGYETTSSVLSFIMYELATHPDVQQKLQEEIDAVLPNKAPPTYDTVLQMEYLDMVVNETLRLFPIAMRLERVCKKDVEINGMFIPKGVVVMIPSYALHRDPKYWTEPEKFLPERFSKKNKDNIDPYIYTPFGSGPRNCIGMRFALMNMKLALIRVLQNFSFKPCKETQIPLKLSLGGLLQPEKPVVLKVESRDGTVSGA

SMILES: CNc1nc(Nc2ccc(-n3cnc(C)n3)c(OC)c2)nc2c1/C(=N/O)CC2c1ccc(F)cc1 (racemic)
IC50 (Gamma-secretase): 0.01 µM

SMILES: CNc1nc(Nc2ccc(-n3cnc(C)n3)c(OC)c2)nc2c1/C(=N/O)C[C@H]2c1ccc(F)cc1
IC50 (Gamma-secretase): 0.005 µM

SMILES: CNc1nc(Nc2ccc(-n3cnc(C)n3)c(OC)c2)nc2c1C(C)(O)CC2c1ccc(F)cc1 (racemic)
IC50 (Gamma-secretase): 0.06 µM

SMILES: CNc1nc(Nc2ccc(-n3cnc(C)n3)c(OC)c2)nc2c1CC[C@]2(O)c1ccc(F)cc1
IC50 (Gamma-secretase): 0.096 µM

SMILES: CNc1nc(Nc2ccc(-n3cnc(C)n3)c(OC)c2)nc2c1C(=O)C[C@H]2c1ccc(F)cc1
IC50 (Gamma-secretase): 0.014 µM

SMILES: CNc1nc(Nc2ccc(-n3cnc(C)n3)c(OC)c2)nc2c1CC[C@@H]2c1ccc(F)cc1
Drug metabolism [1]: Metabolite detected
Ki (Cytochrome P450 3A4): 82.5 µM
Drug metabolism [2]: Metabolite detected
Drug metabolism [3]: Metabolite detected
Drug metabolism [4]: Not Active
remaining at 0.5 h [5]: 94%
Drug metabolism [6]: Metabolite detected
remaining at 0.5 h [7]: 89%

More lines, main results first:

IC50 (Gamma-secretase): 0.017 µM
SMILES: CNc1nc(Nc2ccc(-n3cnc(C)n3)c(OC)c2)nc2c1[C@H](O)C[C@H]2c1ccc(F)cc1

IC50 (Gamma-secretase): 2.3 µM
SMILES: CNc1nc(Nc2ccc(-n3cnc(C)n3)c(OC)c2)nc2c1CC[C@@]2(O)c1ccc(F)cc1

Drug metabolism [4]: Not Active
remaining at 0.5 h [5]: 94%
remaining at 0.5 h [7]: 89%
SMILES: CNc1nc(Nc2ccc(-n3cnc(C)n3)c(OC)c2)nc2c1CC[C@H]2c1ccc(F)cc1
Drug metabolism [1]: Metabolite detected
Drug metabolism [2]: Metabolite detected
Drug metabolism [3]: Metabolite detected
Drug metabolism [6]: Metabolite detected
